Laboratory results from ChEMBL document CHEMBL1201862, “PubChem BioAssay data set” (2004).
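A five-concentration, 48-hour dose response in 96-well plates underlies each endpoint, interpolated linearly between surrounding concentrations. Here, GI50 denotes the concentration required for 50% inhibition of growth.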 Calls of active or inactive are those of the source. Cut-off read from the data, not from the text of the source: active = GI50 up to about 1.1 µM and inactive = higher.

Columns and labels:
Experiment in all cases: growth of human tumour cells (NCI), 48 h
786-0 = test system: 786-0
A549 = test system: A549
ACHN = test system: ACHN
BT-549 = test system: BT-549
CAKI-1 = test system: CAKI-1
CCRF-CEM = test system: CCRF-CEM
COLO 205 = test system: COLO 205
DU-145 = test system: DU-145
EKVX = test system: EKVX
HCT-116 = test system: HCT-116
HCT-15 = test system: HCT-15
HL-60 = test system: HL-60
HOP-62 = test system: HOP-62
HOP-92 = test system: HOP-92
HT-29 = test system: HT-29
Hs-578T = test system: Hs-578T
K562 = test system: K562
KM12 = test system: KM12
LOX IMVI = test system: LOX IMVI
M14 = test system: M14
MCF7 = test system: MCF7
MDA-MB-231 = test system: MDA-MB-231
MDA-MB-435 = test system: MDA-MB-435
MDA-N = test system: MDA-N
MOLT-4 = test system: MOLT-4
Malme-3M = test system: Malme-3M
NCI-H226 = test system: NCI-H226
NCI-H23 = test system: NCI-H23
NCI-H460 = test system: NCI-H460
NCI/ADR-RES = test system: NCI/ADR-RES
OVCAR-3 = test system: OVCAR-3
OVCAR-4 = test system: OVCAR-4
OVCAR-5 = test system: OVCAR-5
OVCAR-8 = test system: OVCAR-8
PC-3 = test system: PC-3
RPMI-8226 = test system: RPMI-8226
RXF 393 = test system: RXF 393
SF-268 = test system: SF-268
SF-295 = test system: SF-295
SF-539 = test system: SF-539
SK-MEL-28 = test system: SK-MEL-28
SK-MEL-5 = test system: SK-MEL-5
SK-OV-3 = test system: SK-OV-3
SN12C = test system: SN12C
SNB-19 = test system: SNB-19
SR = test system: SR
SW-620 = test system: SW-620
T47D = test system: T47D
TK-10 = test system: TK-10
U-251 = test system: U-251
UACC-257 = test system: UACC-257
UACC-62 = test system: UACC-62
UO-31 = test system: UO-31

In the case of `COc1ccc(-c2cc(-c3ccc(O)cc3O)c(C#N)c(=O)[nH]2)cc1`, the GI50 (786-0) is reported as 18.5 µM (inactive), the GI50 (A549) is reported as 23.4 µM (inactive) and the GI50 (ACHN) is reported as 43.2 µM (inactive). For the same compound, the GI50 (BT-549) was 23.6 µM (inactive), the GI50 (CAKI-1) was 23.8 µM (inactive) and the GI50 (CCRF-CEM) was 23.9 µM (inactive). For the same compound, the GI50 (COLO 205) was 16.6 µM (inactive), the GI50 (DU-145) was 40.6 µM (inactive) and the GI50 (EKVX) was 15.2 µM (inactive). The GI50 (HCT-116) was 19.1 µM (inactive), the GI50 (HCT-15) was 31.9 µM and the GI50 (HL-60) was 29.7 µM (inactive). For the same compound, the GI50 (HOP-62) was 17.9 µM (inactive), the GI50 (HOP-92) was 12.6 µM (inactive) and the GI50 (HT-29) was 18.1 µM (inactive). For the same compound, the GI50 (Hs-578T) was 18.5 µM (inactive), the GI50 (K562) was 25.2 µM (inactive) and the GI50 (KM12) was 22.6 µM (inactive). The GI50 (LOX IMVI) was 16.6 µM (inactive), the GI50 (M14) was 16 µM (inactive) and the GI50 (MCF7) was 27 µM (inactive). For the same compound, the GI50 (MDA-MB-231) was 17.3 µM (inactive), the GI50 (MDA-MB-435) was 13.8 µM (inactive) and the GI50 (MDA-N) was 11.6 µM (inactive). For the same compound, the GI50 (MOLT-4) was 18.6 µM (inactive), the GI50 (Malme-3M) was 23.1 µM (inactive) and the GI50 (NCI-H226) was 20.6 µM (inactive). For the same compound, the GI50 (NCI-H23) was 26.2 µM (inactive), the GI50 (NCI-H460) was 23.1 µM (inactive) and the GI50 (NCI/ADR-RES) was 19.6 µM (inactive). For the same compound, the GI50 (OVCAR-3) was 20.5 µM (inactive), the GI50 (OVCAR-4) was 20.1 µM (inactive) and the GI50 (OVCAR-5) was 18.6 µM (inactive). The GI50 (OVCAR-8) was 31.9 µM (inactive), the GI50 (PC-3) was 14.4 µM (inactive) and the GI50 (RPMI-8226) was 15.7 µM (inactive). The GI50 (RXF 393) was 15.9 µM (inactive), the GI50 (SF-268) was 24.3 µM (inactive) and the GI50 (SF-295) was 15.7 µM (inactive). The GI50 (SF-539) was 17.6 µM (inactive), the GI50 (SK-MEL-28) was 15.1 µM (inactive) and the GI50 (SK-MEL-5) was 15.5 µM (inactive). The GI50 (SK-OV-3) was 16.1 µM (inactive), the GI50 (SN12C) was 18.8 µM (inactive) and the GI50 (SNB-19) was 21.9 µM (inactive). For the same compound, the GI50 (SR) was 16.7 µM (inactive), the GI50 (SW-620) was 21.3 µM (inactive) and the GI50 (T47D) was 93.3 µM (inactive). The GI50 (TK-10) was 26.5 µM (inactive), the GI50 (U-251) was 18.7 µM (inactive) and the GI50 (UACC-257) was 19.5 µM (inactive). The GI50 (UACC-62) was 15.8 µM (inactive) and the GI50 (UO-31) was 34.4 µM (inactive).
